According to the NIST ThermoML archive (doi:10.1021/je049582g):

Experiment: cn = amount concentration of the nth substance listed, in mol/dm3
Conditions: 298 K, 101 kPa, Liquid, holographic interferometric technique

NCC(=O)O [2-aminoacetic acid] + O
Conditions | binary diffusion coefficient [m2/s]
c1 = 0.1057 | 1.04e-09
c1 = 0.3056 | 1e-09
c1 = 0.5045 | 9.73e-10
c1 = 0.7064 | 9.57e-10
c1 = 0.9045 | 9.43e-10

[Cl-].[K+] [potassium chloride] + O
Conditions | binary diffusion coefficient [m2/s]
c1 = 0.33 | 1.83e-10

N[C@@H](CO)C(=O)O [L-serine] + O
Conditions | binary diffusion coefficient [m2/s]
c1 = 0.01 | 9.16e-10
c1 = 0.0301 | 8.91e-10
c1 = 0.05 | 8.79e-10
c1 = 0.07 | 8.71e-10
c1 = 0.0902 | 8.65e-10

CC[C@H](C)[C@H](N)C(=O)O [2-amino-3-methylpentanoic acid] + O
Conditions | binary diffusion coefficient [m2/s]
c1 = 0.0101 | 7.61e-10
c1 = 0.0203 | 7.5e-10
c1 = 0.0301 | 7.39e-10
c1 = 0.0399 | 7.32e-10
c1 = 0.05 | 7.25e-10

CC(N)C(=O)O (stereo not drawn) [DL-2-aminopropanoic acid] + O
Conditions | binary diffusion coefficient [m2/s]
c1 = 0.0271 | 9.11e-10
c1 = 0.0281 | 9.11e-10
c1 = 0.2233 | 8.84e-10
c1 = 0.4374 | 8.56e-10
c1 = 0.6786 | 8.27e-10
c1 = 0.9025 | 8.02e-10
c1 = 1.195 | 7.72e-10
c1 = 1.541 | 7.41e-10

C[C@@H](O)[C@H](N)C(=O)O [L-threonine] + O
Conditions | binary diffusion coefficient [m2/s]
c1 = 0.1006 | 7.86e-10
c1 = 0.2002 | 7.58e-10
c1 = 0.2994 | 7.42e-10
c1 = 0.4002 | 7.25e-10
c1 = 0.5003 | 7.15e-10

NC(N)=O [urea] + O
Conditions | binary diffusion coefficient [m2/s]
c1 = 0.125 | 1.37e-09
c1 = 0.2475 | 1.36e-09
c1 = 0.5 | 1.34e-09
c1 = 0.75 | 1.33e-09
c1 = 0.9782 | 1.31e-09
c1 = 1 | 1.31e-09
c1 = 1.5 | 1.27e-09
c1 = 2 | 1.24e-09
c1 = 3 | 1.19e-09
c1 = 4 | 1.14e-09

N=C(N)NCCC[C@H](N)C(=O)O [L-arginine] + O
Conditions | binary diffusion coefficient [m2/s]
c1 = 0.1002 | 7.01e-10
c1 = 0.2 | 6.61e-10
c1 = 0.2949 | 6.36e-10
c1 = 0.4001 | 6.21e-10
c1 = 0.5 | 6.04e-10

CC(C)[C@H](N)C(=O)O [L-valine] + O
Conditions | binary diffusion coefficient [m2/s]
c1 = 0.1 | 7.12e-10
c1 = 0.2 | 6.79e-10
c1 = 0.2999 | 6.55e-10
c1 = 0.4 | 6.45e-10
c1 = 0.5001 | 6.33e-10

C[C@H](N)C(=O)O [(S)-2-aminopropanoic acid] + O
Conditions | binary diffusion coefficient [m2/s]
c1 = 0.0997 | 9.04e-10
c1 = 0.2996 | 8.59e-10
c1 = 0.4996 | 8.34e-10
c1 = 0.7002 | 8.12e-10
c1 = 0.9006 | 7.92e-10

OC[C@H]1O[C@@](CO)(O[C@H]2O[C@H](CO)[C@@H](O)[C@H](O)[C@H]2O)[C@@H](O)[C@@H]1O [D-sucrose] + O
Conditions | binary diffusion coefficient [m2/s]
c1 = 0.1 | 4.89e-10
c1 = 0.3 | 4.27e-10
c1 = 0.5 | 3.67e-10
c1 = 0.7 | 3.06e-10

CC[C@@H](N)C(=O)O [(R)-(-)-α-aminobutyric acid] + O
Conditions | binary diffusion coefficient [m2/s]
c1 = 0.2 | 8e-10
c1 = 0.4 | 7.72e-10
c1 = 0.6 | 7.45e-10
c1 = 0.8 | 7.2e-10
c1 = 1 | 6.97e-10

NCCC(=O)O [3-aminopropanoic acid] + O
Conditions | binary diffusion coefficient [m2/s]
c1 = 0.0281 | 9.36e-10
c1 = 0.0288 | 9.35e-10
c1 = 0.0299 | 9.34e-10
c1 = 0.0344 | 9.33e-10
c1 = 0.111 | 9.18e-10
c1 = 0.5605 | 8.67e-10
c1 = 0.5886 | 8.68e-10
c1 = 1.123 | 8.18e-10
c1 = 1.766 | 7.79e-10
c1 = 2.34 | 7.52e-10
c1 = 2.665 | 7.4e-10
c1 = 3.008 | 7.2e-10
c1 = 3.931 | 6.63e-10
c1 = 4.543 | 6.25e-10
c1 = 5.419 | 5.6e-10
